Read-outs that look alike come from different tables or passages of the source.
Experiments:
[1] = test system: P. stewartii ΔesaI (ESN51); test: Mucoidy (exopolysaccharide) phenotypic assay on CPG agar; format: cell-based, Pantoea stewartii
Description: In P. stewartii, EsaR regulates the production of the exopolysaccharide stewartan, which clogs the xylem of infected plants and leads to the wilt and lesions characteristic of Stewart’s wilt. EsaR binds directly to the rcsA promoter to repress transcription at low cell density, and when this repression is relieved at high cell density, RcsA contributes to activation of the cps gene cluster, which encodes the stewartan biosynthetic pathway. Exopolysaccharide production can be visualized by the growth of mucoid colonies on casamino acid-peptone-glucose (CPG) agar plates, and this phenotypic assay is commonly used to evaluate EsaR-mediated QS in P. stewartii. , To investigate the ability of the synthetic EsaR agonists uncovered here to regulate a QS-controlled phenotype in P. stewartii, selected compounds were tested for their ability to induce mucoidy in the P. stewartii (ΔesaI) strain, ESN51 (Figure ).
P. stewartii ΔesaI (ESN51) was grown on Casamino Peptone Glucose (CPG) agar (1 g/L casamino acids, 10 g/L peptone, 10 g/L glucose, 17 g/L agar) supplemented with a 1:1000 dilution of compound stocks or DMSO. Plates were incubated at 28 °C for 2 days without shaking before imaging with a smartphone camera (Apple iPhone X). Images are representative of at least two biological replicates.

ExpR2 [2] = biological target: ExpR2 (Pectobacterium versatile, UniProt Q1A4U9); test: E. coli GFP reporter with ExpR2-activated promoter (prsmA); format: cell-based, Pectobacterium versatile Ecc71
Sequence of ExpR2 (Pectobacterium versatile, UniProt Q1A4U9) (Q1A4U9 entry or part of it): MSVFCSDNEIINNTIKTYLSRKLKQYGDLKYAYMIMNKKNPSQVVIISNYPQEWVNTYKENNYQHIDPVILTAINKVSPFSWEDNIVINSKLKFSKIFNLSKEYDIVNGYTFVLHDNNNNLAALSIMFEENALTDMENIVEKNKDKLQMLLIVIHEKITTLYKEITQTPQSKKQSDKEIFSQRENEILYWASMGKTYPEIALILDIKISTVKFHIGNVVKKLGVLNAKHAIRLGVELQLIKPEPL
Description: One difference between our prior study in ExpR1/2 and that reported here in EsaR is that the former relied on QS-controlled phenotypes in P. versatile Ecc71 (i.e., cellulase and pectate lyase activity) to measure compound activity, unlike the heterologous transcriptional reporters used for EsaR. To further investigate the differences in antagonism assay data observed between EsaR and ExpR1/2, an E. coli reporter was created with an ExpR2 protein production plasmid (pJN105-expR2) and a reporter plasmid with an ExpR2-activated promoter (prsmA) controlling GFP (see Methods section). […] We return to possible explanations for the differences observed between the ExpR2 phenotypic assays and transcriptional reporters below.
Supporting Information — Stoutland et al.
Additional experimental methods.
Plasmid and reporter strain construction for ExpR2 reporters
Gibson assembly was used to create all constructs. Strains, plasmids and primers are listed in Ta b l es S1 and S2. Plasmid pJN105-expR2 was created by amplifying expR2 from Pectobacterium versatile Ecc71 genomic DNA and inserting it into pJN105, amplified from pJN105-esaR. […] E. coli reporter strains were created by transforming pJN105-expR2 and prsmA:GFP into electrocompetent E. coli JLD271.
E. coli ExpR2 reporter assay
Single colonies of the reporter strain were used to inoculate LB medium supplemented with appropriate antibiotics, and these cultures were grown overnight at 37 °C with shaking at 200 rpm.
Overnight cultures were diluted 1:10 in LB medium with appropriate antibiotics and grown at 37 °C to an OD600 of 0.22–0.27 before induction with 0.4 mg/mL arabinose. Arabinose concentration was optimized to maximize dynamic range of reporter data. Compounds were dissolved in DMSO, and 2 µL of this stock, or DMSO as a negative control, was added to each well of a clear-bottom, black 96-well plate prior to adding 198 µL of induced culture. Plates were incubated at 37 °C with shaking at 200 rpm for 3.5 hr. Assays were performed in technical and biological triplicate. Each well was mixed by pipetting before reading fluorescence and OD600. EC50 values were calculated based on a nonlinear regression of log(concentration) vs. response - variable slope (four parameters) using GraphPad Prism 9 software.

EsaR [3] = biological target: T1, EsaR (Pantoea stewartii subsp. stewartii, UniProt P54293); test: cell-based; conditions: for activation at 100 µM / inhibition at 100 µM: 3.5 h; for activation at 100 µM: read-out: EsaR-activated (pesaS) [%] agonism; for inhibition at 100 µM: read-out: EsaR-activated (pesaS) antagonism; for EsaR agonism, in words: E. coli EsaR reporters, primary screen at 100 μM
T1 construct: expressed in transfected cells; host or cells: E. coli JLD271 (K12 ΔsdiA), arabinose-induced pJN105-esaR
T1 sequence (P54293 whole entry): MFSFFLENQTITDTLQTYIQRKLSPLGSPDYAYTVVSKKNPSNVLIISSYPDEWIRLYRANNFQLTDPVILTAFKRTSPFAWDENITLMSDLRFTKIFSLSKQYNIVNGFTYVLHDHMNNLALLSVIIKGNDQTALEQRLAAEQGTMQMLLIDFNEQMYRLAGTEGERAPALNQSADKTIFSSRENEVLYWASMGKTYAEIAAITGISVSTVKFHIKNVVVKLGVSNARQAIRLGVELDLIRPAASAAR
Description: (§1) EsaR transcriptional activation and repression were examined using E. coli and P. stewartii reporters (strains and plasmids listed in Table S1; see Methods section for assay details). […] We constructed reporters in E. coli based on previously reported EsaR reporters (Table S1). Each strain contained an EsaR expression plasmid (pJN105-esaR) and a reporter plasmid with either an EsaR-activated promoter (pesaS) or an EsaR-repressed promoter (pesaR) upstream of luxABCDE or GFP.
(§2) Gibson assembly was used to create all constructs. Plasmid pJN105-esaR was created by amplifying esaR from pAC-esaR and inserting it into pJN105. pesaSlux was created by inserting pesaS, amplified from pPesaR-AC:gfp, into the pCS-pesaRlux backbone. The pesaR promoter was amplified from pCS-pesaRlux and inserted into the pPesaR-AC:gfp backbone to create pesaR:GFP. P. stewartii reporter strains were created by transforming pesaR:GFP or pPesaR-AC:gfp into ESN51 by conjugation using E. coli S17 λpir as the donor strain. See SI for details of E. coli ExpR2 reporter construction.
(§3) Overnight cultures were diluted 1:10 in LB medium with appropriate antibiotics and grown at 37 °C (200 rpm) to an OD600 of 0.22–0.27 before induction with 4 mg mL^–1 arabinose. OD600 was measured by placing 200 μL of culture into a 96-well plate and reading optical density using the BioTek Synergy 2 plate reader. Assays were performed in technical triplicate in clear-bottom, white and clear-bottom, black 96-well microtiter plates (Corning Costar 3903 and 3904) for luminescence and fluorescence reporters, respectively. Compounds were dissolved in DMSO, and 2 μL of this stock, or DMSO as a negative control, was added to each well prior to adding 198 μL of induced culture. Plates were incubated at 37 °C (200 rpm) for 3.5 h. Each well was mixed by pipetting before reading OD600 and either luminescence or fluorescence. Single-point screens were performed with one or two biological replicates, and all dose–response curves were performed in biological triplicate. EC50 values were calculated based on a nonlinear regression of log(concentration) vs response (three parameters) using GraphPad Prism 9 software.

ExpR2 [4] = conditions: cited from earlier work; for ExpR2 antagonism (percent inhibition): 5 µM compound against 5 µM OHHL, negative values indicate potential activators; for ExpR2 antagonism (percent inhibition) / IC50 / EC50: ref 6 (SI; Palmer et al., 2011); for ExpR2 [%] (agonism, percent activation): compounds at 200 μM, cellulase activity in P. versatile AC5099, ref Palmer et al., 2011 (main ref 44, SI ref 6); for IC50 / EC50: previously reported phenotypic reporter data
EsaR [5] = biological target: T1, EsaR; test: cell-based; conditions: for activation at 100 µM / inhibition at 100 µM: 3.5 h; for activation at 100 µM: read-out: EsaR-repressed (pesaR) [%] agonism; for inhibition at 100 µM: read-out: EsaR-repressed (pesaR) antagonism
Description: as §1, §2, §3

LuxR = conditions: cited from earlier work; for LuxR antagonism: 5 µM compound against 5 µM OHHL, negative values indicate potential activators, ref 6 (SI; Palmer et al., 2011); for LuxR [%] (agonism, activation): compounds at 200 μM, luminescence in V. fischeri ES114 (ΔluxI), ref Palmer et al., 2011 (main ref 44, SI ref 6)
ExpR1 = conditions: cited from earlier work; for ExpR1 antagonism: 5 µM compound against 5 µM OHHL, negative values indicate potential activators, ref 6 (SI; Palmer et al., 2011); for ExpR1 [%] (agonism, activation): compounds at 200 μM, cellulase activity in P. versatile AC5117, ref Palmer et al., 2011 (main ref 44, SI ref 6)
[6] = concentration not given, CPG agar, ESN51
[7] = 10 μM in CPG agar, ESN51, 2 days at 28 °C
[8] = 100 μM in CPG agar, ESN51, 2 days at 28 °C

Structure (SMILES) | activation at 100 µM (EsaR [3]) | inhibition at 100 µM (EsaR [3]) | ExpR2 antagonism (percent inhibition) (ExpR2 [4]) | ExpR2 [%] (agonism, percent activation) (ExpR2 [4]) | activation at 100 µM (EsaR [5]) | inhibition at 100 µM (EsaR [5]) | LuxR antagonism (LuxR) | LuxR [%] (agonism, activation) (LuxR) | ExpR1 antagonism (ExpR1) | ExpR1 [%] (agonism, activation) (ExpR1) | induction of mucoidy [1, 7] | also measured
CCCCCCS(=O)(=O)N[C@H]1CCOC1=O [A11] |  |  |  |  |  |  |  |  |  |  |  | induction of mucoidy [1, 6]: did not induce mucoidy
O=C(CCc1ccc(Br)cc1)N[C@H]1CCOC1=O [B7, 4-Br phenylpropanoyl HL] | 56% | -50% | 66% | 8% | 66% | -36% | 80% | 2% | 78% | 3% |  | ExpR2 agonism, in words (ExpR2 [2]; E. coli ExpR2 GFP reporter): behaved as an agonist; EsaR agonism, in words (EsaR [3]): agonized EsaR; IC50 (ExpR2 [4]): 2.75 µM
O=C(Cc1cccc([N+](=O)[O-])c1)N[C@H]1CCOC1=O [C14, 3-NO2 PHL] | 62% | -56% | -4% | 103% | 22% | -3% | -18% | 130% | -15% | 115% |  | EC50 (ExpR2 [2]): 0.16 µM; ExpR2 agonism, in words (ExpR2 [2]; E. coli ExpR2 GFP reporter): acted as agonists; fold less potent than OHHL in ExpR2 E. coli reporter (ExpR2 [2]; E. coli ExpR2 GFP reporter): approximately 40 fold; EC50 (EsaR [3]): ≥ 68 µM; EsaR agonism, in words (EsaR [3]): moderate activator; EC50 (ExpR2 [4]): 0.5 µM; EC50 (EsaR [5]): ≥ 98 µM
O=C1OCC[C@@H]1NS(=O)(=O)c1cccc(Cl)c1 [GAF 28] |  |  |  |  |  |  |  |  |  |  | induced mucoidy | EC50 (EsaR [3]): 2.2 µM; EC50 (EsaR [5]): 2.2 µM
O=C1OCC[C@H]1NS(=O)(=O)c1ccc(Cl)c(Cl)c1 [GAF 55] |  |  |  |  |  |  |  |  |  |  |  | EsaR agonism at 100 μM (bound stated in text) (EsaR [3]; 100 μM, E. coli EsaR reporter): less than 50%; induction of mucoidy [1, 6]: did not induce mucoidy
O=C1OCC[C@@H]1NS(=O)(=O)c1ccccc1 [GAF 57] |  |  |  |  |  |  |  |  |  |  | not at 10 μM | induction of mucoidy [1, 8]: induced mucoidy
CCCCCC(O)CC(=O)N[C@H]1CCOC1=O (stereo partly shown) [H2] |  |  |  |  |  |  |  |  |  |  | not at 10 μM | fold less potent than OOHL in EsaR (EsaR [3]; E. coli EsaR reporter EC50 values): ~20 fold; induction of mucoidy [1, 8]: induced mucoidy
CCCC(=O)CC(=O)N[C@H]1CCOC1=O [OHHL, 3-oxo-hexanoyl HL, reference compound] | 100% | 0% | 0% | 100% | 100% | 0% | 0% | 100% | 0% | 100% | smooth | EC50 (ExpR2 [2]): 0.0039 µM; ExpR2 agonism, in words (ExpR2 [2]; E. coli ExpR2 GFP reporter): acted as agonists; EC50 (ExpR2 [4]): 2 µM
CCCCCCCCCC(=O)CC(=O)N[C@H]1CCOC1=O [OdDHL, 3-(oxo)-dodecanoyl HL, reference compound] | 34% | -45% | 73% | 17% | 26% | -10% | 86% | 2% | 85% | 2% |  | EsaR agonism, in words (EsaR [3]): agonized EsaR; IC50 (ExpR2 [4]): 0.75 µM
CCCCCCCCCCCC(=O)CC(=O)N[C@H]1CCOC1=O [OtDHL, reference compound] | 16% | -41% | 7% | 9% | 13% | -53% | 5% | 4% | 4% | 1% |  | 
CCCCCCCCCCCC(=O)N[C@H]1CCOC1=O [dDHL, reference compound] | 45% | -63% | 62% | 31% | 35% | -27% | 73% | 1% | 77% | 0% |  | 
CCCCCCCCCCCCCCCC(=O)N[C@H]1CCOC1=O [hDHL, reference compound] | 25% | -11% | 7% | 11% | 22% | -71% | 27% | 2% | 4% | 0% |  | 
